Reference: patent US5324821A, “Method of preparing a lipoprotein modified by incorporation of a lipophilic active substance” (Universite Droit et Sante Lille II, priority 1990, dated 1994)

Test system: LDLs
Assay: Quantities of drug incorporated into LDLs
Format: physicochemical
Settings: ametantrone and mitoxantrone and esters; per particle of LDL; ametantrone esters by optical density at 614 nm; incubation 18 hours at 37° C.
Method: One mg of drug is dissolved in the minimum quantity of an organic solvent (chloroform) then the solvent is evaporated under reduced pressure.
Two hundred μl of washed Endolipide are then added. The tube is shaken vigorously, swirling for 1 minute to dissolve the drug in the lipid phase. The LDLs are then added in a quantity containing 1 mg of proteins, assayed by the method of Lowry modified by Peterson (see Lowry et al., J. Biol. Chem. 193, 265-275 (1951)) and 5 ml of LPDS. After stirring, the mixture is incubated for 18 hours at 37° C.
The LDLs are then separated by ultracentrifugation according to a KBr density gradient (centrifugation for 24 hours at 4° C. and 40,000 rpm).
The modified LDLs are then dialyzed against an NaCl solution, 140 mM, pH 8, then filtered under sterile conditions (0.22 μm) and stored under nitrogen.
drugs (on the modified LDLs): the ametantrone esters were tested after precipitation of apolipoprotein B with isopropanol. For this purpose, 100 μl of LDL are added to 100 μl of isopropanol and stirred for 1 minute then left to stand overnight at 10° C. with stirring. The mixture is then centrifuged for 30 minutes at 300 rpm. The supernatant is removed and evaporated. The residue is treated with 1 ml of chloroform. The optical density is read off at a wavelength of 614 nm and compared to a reference range of the drug.
The elliptinium esters are tested by HPLC according to the technique described by Samadi-Baboli (thesis cited above).

Row | SMILES | quantity of drug incorporated into LDLs (uptake) [molecules/particle]
1 | CCCCCCCCCCCCCCCCCC(=O)OCCNCCNc1ccc(NCCNCCO)c2c1C(=O)c1ccccc1C2=O [Ametantrone monostearate] | 1
2 | CC/C=C\C/C=C\C/C=C\CCCCCCCC(=O)OCCNCCNc1ccc(NCCNCCO)c2c1C(=O)c1ccccc1C2=O [Ametantrone monolinolenate] | 80
3 | CC/C=C\C/C=C\C/C=C\CCCCCCCC(=O)OCCNCCNc1ccc(NCCNCCOC(=O)CCCCCCC/C=C\C/C=C\C/C=C\CC)c2c1C(=O)c1c(O)ccc(O)c1C2=O [Mitoxantrone dilinolenate] | 22
4 | O=C1c2c(O)ccc(O)c2C(=O)c2c(NCCNCCO)ccc(NCCNCCO)c21 [Mitoxantrone, reference compound] | 1
5 | O=C1c2ccccc2C(=O)c2c(NCCNCCO)ccc(NCCNCCO)c21 [Ametantrone, reference compound] | 1
6 | CCCCCCCC/C=C\CCCCCCCC(=O)OCCNCCNc1ccc(NCCNCCO)c2c1C(=O)c1ccccc1C2=O [Ametantrone monooleate] | 2
7 | CCCCCCCCCCCCCCCCCC(=O)OCCNCCNc1ccc(NCCNCCOC(=O)CCCCCCCCCCCCCCCCC)c2c1C(=O)c1ccccc1C2=O [Ametantrone distearate] | 1
8 | CCCCCCCCCCCCCCCC(=O)OCCNCCNc1ccc(NCCNCCO)c2c1C(=O)c1ccccc1C2=O [Ametantrone monopalmitate] | 2
9 | CCCCCCCCCCCCCCCC(=O)OCCNCCNc1ccc(NCCNCCOC(=O)CCCCCCCCCCCCCCC)c2c1C(=O)c1ccccc1C2=O [Ametantrone dipalmitate] | 2
10 | CCCCCCCC/C=C\CCCCCCCC(=O)OCCNCCNc1ccc(NCCNCCOC(=O)CCCCCCC/C=C\CCCCCCCC)c2c1C(=O)c1ccccc1C2=O [Ametantrone dioleate] | 2
11 | CC/C=C\C/C=C\C/C=C\CCCCCCCC(=O)OCCNCCNc1ccc(NCCNCCOC(=O)CCCCCCC/C=C\C/C=C\C/C=C\CC)c2c1C(=O)c1ccccc1C2=O [Ametantrone dilinolenate] | 90

Same assay, conditions: elliptinium esters, tested by HPLC; incubation 18 hours at 37° C.

Row | SMILES | quantity of drug incorporated into LDLs (uptake)
12 | CCCCCCCC/C=C\CCCCCCCC(=O)Oc1ccc2[nH]c3c(C)c4cc[n+](C)cc4c(C)c3c2c1 [Elliptinium oleate] | 83 μg per mg of protein
13 | CCCCCCCCCCCCCCCC(=O)Oc1ccc2[nH]c3c(C)c4cc[n+](C)cc4c(C)c3c2c1 [Elliptinium palmitate] | 58 μg per mg of protein
14 | CCCCCCCCCCCCCCCCCC(=O)Oc1ccc2[nH]c3c(C)c4cc[n+](C)cc4c(C)c3c2c1 [Elliptinium stearate] | 37 μg per mg of protein
